According to patent US10160748B2 (AbbVie Inc., priority 2015, dated 2018):
pIC50: −log10 of the molar value.

Target: TNFα trimer (Homo sapiens, UniProt P01375)
Test: TNFα FP Competitive Binding Assay
Conditions: FP binding assay; 20 nM TNFα trimer, 1 nM OregonGreen488 probe; read-out: TNF IC50
Procedure: TNFα FP Competitive Binding Assay
• 1. Assay Buffer: Prepare 1× Assay Buffer (Water with 47 mM HEPES, 47 mM NaCl, 0.9 mM EDTA, 0.0071% Triton X-100) by adding 25 mL of 1 M HEPES, 5 mL of 5 M NaCl, 1 mL of 0.5 M EDTA, and 375 μL of a 10% Triton X-100 stock to a fresh 500 mL bottle of water. • 2. Assay Mixture: Prepare fresh Assay Mixture containing 20 nM TNFα trimer (60 nM protein) and 1 nM 2′,7′-difluoro-3′,6′-dihydroxy-N-(2-(2-(2-((4-(isoquinolin-8-yl)-3-(4-(isoquinolin-8-yl)phenethoxy)benzyl)oxy)ethoxy)ethoxy)ethyl)-3-oxo-3H-spiro[isobenzofuran-1,9′-xanthene]-5-carboxamide probe in 1× Assay Buffer. Compound Plate Preparation Manual 12-Point 1:3 Dilution Plates: (384 Well Polypropylene Plates)
Top concentration of compounds, 10 mM in DMSO, dispensed in rows A-O in columns 1 and 13. Compounds are serially diluted 1:3 with DMSO in columns 2-12 or 14-24 using a 16-channel Matrix pipettor. Plates stored at −20° C.
Discovery Preps 12-Point 1:3 Dilution Plates: (384 Well Assay Plates)
Top concentration, 5 mM in DMSO, of compounds placed in rows A-O in columns 1 and 13. Compounds are serially diluted 1:3 with DMSO in columns 2-12 or 14-24. Compound solutions are dispensed into replicate assay plates at 410 nL per well. Plates stored at 4° C.
TNFα FP Competitive Binding Assay Protocol
• 1. Compound plates warmed to rt. • 2. Fresh Assay Mixture is prepared. • 3. Assay Mixture (20 μL) is dispensed each well of 384 assay plates using a Thermo Multidrop Combi or 16-channel Matrix pipettor. If Manual 12-point 1:3 Dilution Plates are to be tested, Assay Mix is dispensed into empty plates. Discovery Preps 12-point 1:3 Dilution Plates already contain 410 nL compound solution in DMSO. • 4. For Manual 12-point 1:3 Dilution Plates, 0.7 μL is manually transferred using a 16-channel Matrix pipettor to replicate assay plates containing 20 μL Assay Mixture for a final top compound concentration of 338 μM (3.4% DMSO). • 5. For Discovery Preps 12-point 1:3 Dilution Plates, 20 μL Assay Mixture added the 410 nL compound solution already in the plates yields a final top compound concentration of 100 μM (2.0% DMSO). • 6. Background subtraction controls are wells P1-P8 containing only Assay Buffer. The low % inhibition controls are wells P9-P16 containing only Assay Mix. The high % inhibition are wells P17-P24 containing only 1 nM 2′,7′-difluoro-3′,6′-dihydroxy-N-(2-(2-(2-((4-(isoquinolin-8-yl)-3-(4-(isoquinolin-8-yl)phenethoxy)benzyl)oxy)ethoxy)ethoxy)ethyl)-3-oxo-3H-spiro[isobenzofuran-1,9′-xanthene]-5-carboxamide probe in 1× Assay Buffer. • 7. Plates are incubated at rt for 18-24 h in 37° C. incubator (CO2 is off). • 8. Prior to reading the assay, the plates are placed in a dark cabinet to equilibrate at rt for one hour. • 9. Background-subtracted fluorescence polarization (mP) is measured using a PerkinElmer Envision plate reader. • 10. Raw data is entered into Assay Explorer and dose-response curves are generated using a variable slope curve. Supplies, Materials, and Reagents

Sequence of TNFα trimer (P01375 77-233 limits assumed): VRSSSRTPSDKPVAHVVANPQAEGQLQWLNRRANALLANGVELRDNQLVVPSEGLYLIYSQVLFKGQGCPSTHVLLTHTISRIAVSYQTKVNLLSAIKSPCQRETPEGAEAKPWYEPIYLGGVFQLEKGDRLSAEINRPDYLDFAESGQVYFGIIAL

| pIC50 | Structure (SMILES) |
| --- | --- |
| > 6.00 | Cc1ccc(OC(F)F)c(Cn2c3cc(-c4cnc(N5CCN(C(=O)CO)C[C@H]5C)nc4)c(F)cc3c(=O)n2C)c1 [Example 17.3] |
| > 6.00 | CC(=O)N1CCN(c2ncc(-c3ccc4c(=O)n(C)n(Cc5cc(C)ccc5OC(F)F)c4c3)cn2)CC1 [Example 22.6] |
| > 6.00 | Cc1ccc(C(F)(F)F)c(Cn2c3cc(-c4cnc(N5CCN6C(=O)NC[C@H]6C5)nc4)ccc3c(=O)n2C)c1 [Example 29.3] |
| > 6.00 | Cn1c(=O)c2ccc(-c3cnc(N4CCN5C(=O)NC[C@@H]5C4)nc3)cc2n1Cc1nc(CO)ccc1C(F)(F)F [Example 16.10] |
| > 6.00 | CN1CCC(Nc2ncc(-c3ccc4c(=O)n(C)n(Cc5cc(CO)ccc5OC(F)F)c4c3)cn2)CC1=O (stereo not shown) [Example 16.9] |
| > 6.00 | Cn1c(=O)c2ccc(-c3cnc(N4CCN5C(=O)NC[C@H]5C4)nc3)cc2n1Cc1cc(Cl)ccc1C(F)(F)F [Example 29.5] |
| > 6.00 | CC(=O)N1CCN(c2ncc(-c3ccc4c(=O)n(C)n(Cc5cc(CO)ccc5OC(F)F)c4c3)cn2)CC1 [Example 16.8] |
| > 6.00 | Cc1ccc(OC(F)F)c(Cn2c3cc(-c4cnc(N5CCN(C(=O)CO)CC5)nc4)ccc3c(=O)n2C)c1 [Example 22.1] |
| 5.00 to 6.00 | COC(=O)NCc1ccc(OC(F)F)c(Cn2c3cc(-c4cnc(C(C)(C)O)nc4)ccc3c(=O)n2C)c1 [Example 26.3] |
| > 6.00 | Cc1c(-c2cnc(N3CCN(C(=O)CO)[C@H](C)C3)nc2)ccc2c(=O)n(C)n(Cc3ccccc3Cl)c12 [Example 24.13] |
| 5.00 to 6.00 | Cc1ccc(OC(F)F)c(Cn2c3nc(-c4cnc(C(C)(C)O)nc4)c(F)cc3c(=O)n2C)c1 [Example 26.7] |
| > 6.00 | Cn1c(=O)c2ccc(-c3cnc(N4CCN5C(=O)OC[C@H]5C4)nc3)cc2n1Cc1cc(CO)ccc1OC(F)F [Example 16.4] |
| > 6.00 | Cc1ccc(OC(F)F)c(Cn2c3cc(-c4cnc(N5CCN(C(=O)CO)[C@H](C)C5)nc4)ccc3c(=O)n2C)c1 [Example 22.3] |
| 5.00 to 6.00 | CC(=O)N1CCN(c2ncc(-c3ccc4c(=O)n(Cc5ccncc5)n(Cc5ccccc5Cl)c4c3)cn2)C[C@H]1C [Example 27.7] |

Continued, compound first:

| Structure (SMILES) | pIC50 |
| --- | --- |
| Cc1ccc(OC(F)F)c(Cn2c3cc(-c4cnn5c([C@@H](C)O)cnc5c4)ccc3c(=O)n2C)c1 (single isomer, unassigned) [Example 107] | > 6.00 |
| Cn1c(=O)c2ccc(-c3cnc(C(C)(C)O)nc3)cc2n1Cc1cc(Cn2cn[nH]c2=O)ccc1OC(F)F [Example 92, 1-(2-(Difluoromethoxy)-((5-oxo-1H-1,2,4-triazol-4(5H)-yl)methy)benzyl)-6-(2-(2-hydroxypropan-2-yl)pyrimidin-5-yl)-2-methyl-1H-indazol-3(2H)-one] | 5.00 to 6.00 |
| COC(=O)N1CCN(c2ncc(-c3ccc4c(=O)n(C)n(Cc5cc(C)ccc5OC(F)F)c4c3)cn2)C[C@H]1C [Example 23, (R)-Methyl 4-(5-(1-(2-(difluoromethoxy)-5-methylbenzyl)-2-methyl-3-oxo-2,3-dihydro-1H-indazol-6-yl)pyrimidin-2-yl)-2-methylpiperazine-1-carboxylate] | > 6.00 |
| CN1CC(CNc2ncc(-c3ccc4c(=O)n(C)n(Cc5ccccc5OC(F)F)c4c3)cn2)CC1=O (stereo not shown) [Example 2.16] | 5.00 to 6.00 |
| Cn1c(=O)c2ccc(-c3cnc(C(C)(C)O)nc3)nc2n1Cc1ccccc1OC(F)F [Example 16, 1-(2-(Difluoromethoxy)benzyl)-6-(2-(2-hydroxypropan-2-yl)pyrimidin-5-yl)-2-methyl-1H-pyrazolo[3,4-b]pyridin-3(2H)-one] | 5.00 to 6.00 |
| Cn1c(=O)c2ccc(-c3cnc(N4CC5(COC5)C4)nc3)cc2n1Cc1ccccc1OC(F)F [Example 2.4] | 5.00 to 6.00 |
| Cn1c(=O)c2ccc(-c3cnc(N4CCN5C(=O)OC[C@H]5C4)nc3)cc2n1Cc1ccccc1OC(F)F [Example 2.25] | > 6.00 |
| Cc1ccc(CO)cc1Cn1c2cc(-c3cnc(N4CCOCC4)nc3)ccc2c(=O)n1C [Example 56, 1-(5-(Hydroxymethyl)-2-methylbenzyl)-2-methyl-6-(2-morpholinopyrimidin-5-yl)-1H-indazol-3(2H)-one] | 5.00 to 6.00 |
| Cc1ccc(Cl)c(Cn2c3nc(-c4cnc(C(C)(C)O)nc4C)ccc3c(=O)n2C)c1 [Example 99, 1-(2-Chloro-5-methylbenzyl)-6-(2-(2-hydroxypropan-2-yl)-4-methylpyrimidin-5-yl)-2-methyl-1,2-dihydro-3H-pyrazolo[3,4-b]pyridin-3-one] | > 6.00 |
| Cc1ccc(Cl)c(Cn2c3cc(-c4cnc(N5CCN6C(=O)NC[C@H]6C5)nc4)ccc3c(=O)n2C)c1 [Example 103, (S)-7-(5-(1(2-Chloro-5-methylbenzyl)-2-methyl-3-oxo-2,3-dihydro-1H-indazol-6-yl)pyrimidin-2-yl)hexahydroimidazo[1,5-a]pyrazin-3(2H)-one] | > 6.00 |
| C[C@@H]1CN(c2ncc(-c3ccc4c(=O)n(C)n(Cc5ccccc5OC(F)F)c4c3)cn2)CCN1C(=O)[C@H](O)CO [Example 39, 1-(2-(Difluoromethoxy)benzyl)-6-(2-((R)-4-((R)-2,3-dihydroxypropanoyl)-3-methylpiperazin-1-yl)pyrimidin-5-yl)-2-methyl-1H-indazol-3(2H)-one] | > 6.00 |
| Cc1ccc(OC(F)F)c(Cn2c3cc(-c4cnc(N5CCN(C(=O)COP(=O)(O)O)[C@H](C)C5)nc4)ccc3c(=O)n2C)c1 [Example 69, (R)-2-(4-(5-(1-(2-(Difluoromethoxy)-5-methylbenzyl)-2-methyl-3-oxo-2,3-dihydro-1H-indazol-6-yl)pyrimidin-2-yl)-2-methyldihydrogen phosphate] | > 6.00 |
| Cn1c(=O)c2cc(F)c(-c3cnc(C(C)(C)O)nc3)cc2n1Cc1cc(CC#N)ccc1OC(F)F [Example 100, 2-(4-(Difluoromethoxy)-3-((5-fluoro-6-(2-(2-hydroxypropan-2-yl)pyrimidin-5-yl)-2-methyl-3-oxo-2,3-dihydro-1H-indazol-1-yl)methyl)phenyl)acetonitrile] | 5.00 to 6.00 |
| Cn1c(=O)c2ccc(-c3cnc(N4CCOCC4)nc3)cc2n1Cc1cc(CO)ccc1OC(F)F [Example 9, 1-(2-(Difluoromethoxy)-5-(hydroxymethyl)benzyl)-2-methyl-6-(2-morpholinopyrimidin-5-yl)-1H-indazol-3(2H)-one] | > 6.00 |
| CC(=O)N1CC[C@H](Nc2ncc(-c3ccc4c(=O)n(C)n(Cc5ccccc5OC(F)F)c4c3)cn2)C1 [Example 3, (S)-6-(2-((1-Acetylpyrrolidin-3-yl)amino)pyrimidin-5-yl)-1-(2-(difluoromethoxy)benzyl)-2-methyl-1H-indazol-3(2H)-one] | 5.00 to 6.00 |
| CC(=O)N1CCN(c2ncc(-c3ccc4c(=O)n(C)n(Cc5cc(CC(C)O)ccc5OC(F)F)c4c3)cn2)C[C@H]1C (stereo partly drawn) [Example 114, 6-(2-((R)-4-Acetyl-3-methylpiperazin-1-yl)pyrimidin-5-yl)-1-(2-(difluoromethoxy)-5-(2-hydroxypropyl)benzyl)-2-methyl-1H-indazol-3(2H)-one] | 5.00 to 6.00 |
| CN1CC[C@@H](Nc2ncc(-c3ccc4c(=O)n(C)n(Cc5cc(CO)ccc5OC(F)F)c4c3)cn2)CC1=O (single isomer, unassigned) [Example 28] | > 6.00 |
| CC(=O)N1CCN(c2ncc(-c3ccc4c(=O)n(C)n(Cc5cc(C)ccc5OC(F)F)c4c3)cn2)C[C@@H]1C (single isomer, unassigned) [Example 55] | > 6.00 |
| Cn1cc(Cn2c3cc(-c4cnc(N5CCN6C(=O)NC[C@H]6C5)nc4)ccc3c(=O)n2C)c(C(F)(F)F)c1 [Example 123, (S)-7-(5-(2-Methyl-1-((1-methyl-4-(trifluoromethyl)-1H-pyrrol-3-yl)methyl)-3-oxo-2,3-dihydro-1H-indazol-6-yl)pyrimidin-2-yl)hexahydroimidazo[1,5-a]pyrazin-3(2H)-one] | > 6.00 |
| Cc1cccc([C@@H](C)n2c3cc(-c4cnc(N5CCN(C(=O)CO)[C@H](C)C5)nc4)ccc3c(=O)n2C)c1 (single isomer, unassigned) [Example 118] | 5.00 to 6.00 |
